Measurements published in PubChem BioAssay AID2060904 (Molecular Pharmacology Branch, DTP, NCI, 2025).
Blank lines part the entries; values can stand above or below the molecule they belong to.

Test system: 349418-098-R-PDC complex spheroid viability
Assay: Anticancer human tumor 349418-098-R-PDC patient-derived lung adenocarcinoma cell line growth inhibition [RAS]
Details: for IC50: curve of first compound; for viability, T/C: stronger effect = lower value
Summary of the method: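 Agents were tested in combination matrices in half-log decrements from a top concentration at or near clinical Cmax (10 microM if undetermined). Targets were multi-cell spheroids of tumour lines plus HUVEC and MSC stromal cells.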

[1] = second compound 0.00316 µM, first compound 0.0316 µM
[2] = second compound 0.00316 µM, first compound 0.1 µM
[3] = second compound 0.00316 µM, first compound 0.316 µM
[4] = second compound 0.00316 µM, first compound 1 µM
[5] = second compound 0.00316 µM, first compound 3.16 µM
[6] = second compound 0.00316 µM, first compound 10 µM
[7] = second compound 0.01 µM, first compound 0.0316 µM
[8] = second compound 0.01 µM, first compound 0.1 µM
[9] = second compound 0.01 µM, first compound 0.316 µM
[10] = second compound 0.01 µM, first compound 1 µM
[11] = second compound 0.01 µM, first compound 3.16 µM
[12] = second compound 0.01 µM, first compound 10 µM
[13] = second compound 0.0316 µM, first compound 0.0316 µM
[14] = second compound 0.0316 µM, first compound 0.1 µM
[15] = second compound 0.0316 µM, first compound 0.316 µM
[16] = second compound 0.0316 µM, first compound 1 µM
[17] = second compound 0.0316 µM, first compound 3.16 µM
[18] = second compound 0.0316 µM, first compound 10 µM
[19] = second compound 0.1 µM, first compound 0.0316 µM
[20] = second compound 0.1 µM, first compound 0.1 µM
[21] = second compound 0.1 µM, first compound 0.316 µM
[22] = second compound 0.1 µM, first compound 1 µM
[23] = second compound 0.1 µM, first compound 3.16 µM
[24] = second compound 0.1 µM, first compound 10 µM
[25] = second compound 0.316 µM, first compound 0.0316 µM
[26] = second compound 0.316 µM, first compound 0.1 µM
[27] = second compound 0.316 µM, first compound 0.316 µM
[28] = second compound 0.316 µM, first compound 1 µM
[29] = second compound 0.316 µM, first compound 3.16 µM
[30] = second compound 0.316 µM, first compound 10 µM
[31] = second compound 1 µM, first compound 0.0316 µM
[32] = second compound 1 µM, first compound 0.1 µM
[33] = second compound 1 µM, first compound 0.316 µM
[34] = second compound 1 µM, first compound 1 µM
[35] = second compound 1 µM, first compound 3.16 µM
[36] = second compound 1 µM, first compound 10 µM
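Also: spheroids exposed to compound for seven days before viability readout.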

IC50 (second compound 0.00316 µM): > 10 µM
IC50 (second compound 0.01 µM): > 10 µM
IC50 (second compound 0.0316 µM): > 10 µM
IC50 (second compound 0.1 µM): > 10 µM
IC50 (second compound 0.316 µM): > 10 µM
IC50 (second compound 1 µM): > 10 µM
SMILES: Cc1nc(N2CCC3(CC2)COC(C)C3N)c(CO)nc1Sc1ccnc(N)c1Cl (stereo unspecified) + C=CC(=O)N1CCN(c2nc(OCC3CCCN3C)nc3c(F)c(-c4nc(N)cc(C)c4C(F)(F)F)c(Cl)cc23)C(C)C1
viability, T/C [1]: 100%
viability, T/C [2]: 83.6%
viability, T/C [3]: 131%
viability, T/C [4]: 86.9%
viability, T/C [5]: 81.7%
viability, T/C [6]: 102%
viability, T/C [7]: 78.4%
viability, T/C [8]: 80.5%
viability, T/C [9]: 92.5%
viability, T/C [10]: 92.5%
viability, T/C [11]: 104%
viability, T/C [12]: 98.3%
viability, T/C [13]: 84.3%
viability, T/C [14]: 107%
viability, T/C [15]: 87.1%
viability, T/C [16]: 73.6%
viability, T/C [17]: 120%
viability, T/C [18]: 99%
viability, T/C [19]: 82.8%
viability, T/C [20]: 64.9%
viability, T/C [21]: 92.5%
viability, T/C [22]: 87.3%
viability, T/C [23]: 81.2%
viability, T/C [24]: 82.9%
viability, T/C [25]: 81%
viability, T/C [26]: 89.2%
viability, T/C [27]: 73.4%
viability, T/C [28]: 81.7%
viability, T/C [29]: 86%
viability, T/C [30]: 87.1%
viability, T/C [31]: 105%
viability, T/C [32]: 76.5%
viability, T/C [33]: 95.8%
viability, T/C [34]: 108%
viability, T/C [35]: 88.1%
viability, T/C [36]: 105%

IC50 (second compound 0.00316 µM): > 10 µM
IC50 (second compound 0.01 µM): > 10 µM
IC50 (second compound 0.0316 µM): > 10 µM
IC50 (second compound 0.1 µM): > 10 µM
IC50 (second compound 0.316 µM): > 10 µM
IC50 (second compound 1 µM): > 10 µM
SMILES: NC1c2ccccc2OC12CCN(c1cnc3c(N4CCCc5ncccc54)n[nH]c3n1)CC2 (stereo unspecified) + C=CC(=O)N1CCN(c2nc(OCC3CCCN3C)nc3c(F)c(-c4nc(N)cc(C)c4C(F)(F)F)c(Cl)cc23)C(C)C1
viability, T/C [1]: 106%
viability, T/C [2]: 85.4%
viability, T/C [3]: 93.2%
viability, T/C [4]: 75.5%
viability, T/C [5]: 102%
viability, T/C [6]: 55.8%
viability, T/C [7]: 113%
viability, T/C [8]: 91.4%
viability, T/C [9]: 110%
viability, T/C [10]: 72.9%
viability, T/C [11]: 93.9%
viability, T/C [12]: 68.5%
viability, T/C [13]: 114%
viability, T/C [14]: 100%
viability, T/C [15]: 67%
viability, T/C [16]: 86%
viability, T/C [17]: 82.3%
viability, T/C [18]: 71.1%
viability, T/C [19]: 100%
viability, T/C [20]: 82.5%
viability, T/C [21]: 83.1%
viability, T/C [22]: 101%
viability, T/C [23]: 119%
viability, T/C [24]: 76.7%
viability, T/C [25]: 80%
viability, T/C [26]: 92.7%
viability, T/C [27]: 92.1%
viability, T/C [28]: 91.1%
viability, T/C [29]: 100%
viability, T/C [30]: 64%
viability, T/C [31]: 64.5%
viability, T/C [32]: 89.8%
viability, T/C [33]: 74%
viability, T/C [34]: 83.7%
viability, T/C [35]: 71.2%
viability, T/C [36]: 69.1%

IC50 (second compound 0.00316 µM): < 0.00316 µM
IC50 (second compound 0.01 µM): < 0.00316 µM
IC50 (second compound 0.0316 µM): < 0.00316 µM
IC50 (second compound 0.1 µM): < 0.00316 µM
IC50 (second compound 0.316 µM): < 0.00316 µM
IC50 (second compound 1 µM): < 0.00316 µM
SMILES: Nc1ccn(C2OC(CO)C(O)C2(F)F)c(=O)n1 (stereo unspecified) + C=CC(=O)N1CCN(c2nc(OCC3CCCN3C)nc3c(F)c(-c4nc(N)cc(C)c4C(F)(F)F)c(Cl)cc23)C(C)C1
viability, T/C (second compound 0.00316 µM, first compound 0.00316 µM): 21.5%
viability, T/C (second compound 0.00316 µM, first compound 0.01 µM): 7.36%
viability, T/C [1]: 6.2%
viability, T/C [2]: 4.92%
viability, T/C [3]: 5.23%
viability, T/C [4]: 5.62%
viability, T/C (second compound 0.01 µM, first compound 0.00316 µM): 17%
viability, T/C (second compound 0.01 µM, first compound 0.01 µM): 6.27%
viability, T/C [7]: 5.91%
viability, T/C [8]: 5.09%
viability, T/C [9]: 5.47%
viability, T/C [10]: 5.2%
viability, T/C (second compound 0.0316 µM, first compound 0.00316 µM): 21.6%
viability, T/C (second compound 0.0316 µM, first compound 0.01 µM): 6.92%
viability, T/C [13]: 6.95%
viability, T/C [14]: 5.38%
viability, T/C [15]: 5.08%
viability, T/C [16]: 4.96%
viability, T/C (second compound 0.1 µM, first compound 0.00316 µM): 22.6%
viability, T/C (second compound 0.1 µM, first compound 0.01 µM): 6.48%
viability, T/C [19]: 4.56%
viability, T/C [20]: 4.77%
viability, T/C [21]: 4.97%
viability, T/C [22]: 4.84%
viability, T/C (second compound 0.316 µM, first compound 0.00316 µM): 19.2%
viability, T/C (second compound 0.316 µM, first compound 0.01 µM): 8.3%
viability, T/C [25]: 4.99%
viability, T/C [26]: 5.68%
viability, T/C [27]: 6.7%
viability, T/C [28]: 4.81%
viability, T/C (second compound 1 µM, first compound 0.00316 µM): 22.9%
viability, T/C (second compound 1 µM, first compound 0.01 µM): 6.24%
viability, T/C [31]: 4.96%
viability, T/C [32]: 6.96%
viability, T/C [33]: 7.44%
viability, T/C [34]: 5.82%
